Experimental data published in ChEMBL document CHEMBL4118067, “Isosteroidal alkaloids as potent dual-binding site inhibitors of both acetylcholinesterase and butyrylcholinesterase from the bulbs of Fritillaria walujewii” (Eur J Med Chem, 2017).
Active and inactive are the calls of the source. No cut-off for these calls is given here.

Key:
[1] = biological target: Acetylcholinesterase (Electrophorus electricus) (UniProt O42275); test: Reversible inhibition of electric eel AChE at 2 to 10 uM using acetylthiocholine iodide as substrate preincubated for 15 mins followed by substrate addition measured for 30 mins by Ellman's method
Acetylcholinesterase (Electrophorus electricus), sequence (O42275 24-633 limits assumed): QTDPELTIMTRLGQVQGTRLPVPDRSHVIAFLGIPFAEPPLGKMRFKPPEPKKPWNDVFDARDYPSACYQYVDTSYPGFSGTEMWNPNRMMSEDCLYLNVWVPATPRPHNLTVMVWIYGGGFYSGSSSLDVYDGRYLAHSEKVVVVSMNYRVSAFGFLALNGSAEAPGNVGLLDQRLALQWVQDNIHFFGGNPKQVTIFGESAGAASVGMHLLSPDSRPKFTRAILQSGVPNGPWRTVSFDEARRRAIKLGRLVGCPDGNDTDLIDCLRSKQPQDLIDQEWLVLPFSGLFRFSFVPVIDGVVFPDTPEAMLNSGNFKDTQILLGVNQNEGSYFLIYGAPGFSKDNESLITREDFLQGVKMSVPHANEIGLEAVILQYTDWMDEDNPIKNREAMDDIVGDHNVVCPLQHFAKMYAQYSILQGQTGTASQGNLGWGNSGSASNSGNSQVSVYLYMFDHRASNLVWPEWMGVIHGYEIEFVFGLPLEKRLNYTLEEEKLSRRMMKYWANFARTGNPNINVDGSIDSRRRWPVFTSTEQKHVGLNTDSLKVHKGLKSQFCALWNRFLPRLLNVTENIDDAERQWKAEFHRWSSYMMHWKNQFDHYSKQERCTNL

[2] = Selectivity index, ratio of IC50 for equine serum BChE to IC50 for electric eel AChE
[3] = biological target: Acetylcholinesterase (Electrophorus electricus, UniProt O42275); test: Inhibition of electric eel AChE using acetylthiocholine iodide as substrate preincubated for 15 mins followed by substrate addition measured for 30 mins by Ellman's method
Acetylcholinesterase, sequence (O42275 whole entry): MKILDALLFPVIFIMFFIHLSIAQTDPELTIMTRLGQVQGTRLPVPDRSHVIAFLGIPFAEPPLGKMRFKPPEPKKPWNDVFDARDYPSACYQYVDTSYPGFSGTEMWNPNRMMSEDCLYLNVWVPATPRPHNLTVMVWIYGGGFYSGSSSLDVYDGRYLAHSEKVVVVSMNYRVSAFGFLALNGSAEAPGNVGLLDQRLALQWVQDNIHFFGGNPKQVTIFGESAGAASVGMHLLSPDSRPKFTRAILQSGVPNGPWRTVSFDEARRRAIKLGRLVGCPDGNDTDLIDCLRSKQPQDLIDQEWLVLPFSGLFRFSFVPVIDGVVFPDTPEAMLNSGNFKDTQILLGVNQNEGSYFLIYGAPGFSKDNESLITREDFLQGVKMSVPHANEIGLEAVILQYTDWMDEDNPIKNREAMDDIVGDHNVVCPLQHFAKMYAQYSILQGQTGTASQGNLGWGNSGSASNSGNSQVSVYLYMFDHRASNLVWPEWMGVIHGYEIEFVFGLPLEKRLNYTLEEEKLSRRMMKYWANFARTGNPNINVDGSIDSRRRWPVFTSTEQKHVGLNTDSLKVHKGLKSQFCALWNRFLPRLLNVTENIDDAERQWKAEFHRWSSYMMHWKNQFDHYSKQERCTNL

[4] = biological target: Acetylcholinesterase (Electrophorus electricus) (UniProt O42275); test: Mixed-type inhibition of electric eel AChE at 8 to 32 uM using acetylthiocholine iodide as substrate preincubated for 15 mins followed by substrate addition measured for 30 mins by Lineweaver-Burk plot method
[5] = biological target: Cholinesterase (Equus caballus, UniProt P81908); test: Inhibition of equine serum BChE using butyrylthiocholine iodide as substrate preincubated for 15 mins followed by substrate addition measured for 30 mins by Ellman's method
Cholinesterase, sequence (P81908 whole entry): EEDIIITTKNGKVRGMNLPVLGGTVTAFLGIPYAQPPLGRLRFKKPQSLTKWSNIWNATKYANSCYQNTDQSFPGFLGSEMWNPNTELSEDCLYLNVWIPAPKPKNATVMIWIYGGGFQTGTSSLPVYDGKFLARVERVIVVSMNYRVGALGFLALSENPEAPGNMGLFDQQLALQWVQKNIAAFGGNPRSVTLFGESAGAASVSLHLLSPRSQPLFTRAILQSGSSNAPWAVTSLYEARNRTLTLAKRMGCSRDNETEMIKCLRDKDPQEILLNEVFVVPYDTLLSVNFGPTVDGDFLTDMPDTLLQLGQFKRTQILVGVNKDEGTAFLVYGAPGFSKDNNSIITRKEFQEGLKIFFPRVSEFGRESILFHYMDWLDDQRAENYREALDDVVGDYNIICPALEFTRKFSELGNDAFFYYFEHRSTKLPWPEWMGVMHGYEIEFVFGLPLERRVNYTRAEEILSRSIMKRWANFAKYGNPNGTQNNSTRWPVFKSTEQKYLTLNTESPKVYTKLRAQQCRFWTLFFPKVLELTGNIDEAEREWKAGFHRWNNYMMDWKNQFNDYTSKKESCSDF

[6] = biological target: Acetylcholinesterase (Electrophorus electricus) (UniProt O42275); test: Reversible inhibition of electric eel AChE at 6 to 16 uM using acetylthiocholine iodide as substrate preincubated for 15 mins followed by substrate addition measured for 30 mins by Ellman's method
[7] = biological target: Acetylcholinesterase (Electrophorus electricus) (UniProt O42275); test: Mixed-type inhibition of electric eel AChE at 6 to 24 uM using acetylthiocholine iodide as substrate preincubated for 15 mins followed by substrate addition measured for 30 mins by Lineweaver-Burk plot method
[8] = biological target: Acetylcholinesterase (Electrophorus electricus) (UniProt O42275); test: Mixed-type inhibition of electric eel AChE at 7 to 28 uM using acetylthiocholine iodide as substrate preincubated for 15 mins followed by substrate addition measured for 30 mins by Lineweaver-Burk plot method
[9] = biological target: Acetylcholinesterase (Electrophorus electricus) (UniProt O42275); test: Reversible inhibition of electric eel AChE at 4 to 12 uM using acetylthiocholine iodide as substrate preincubated for 15 mins followed by substrate addition measured for 30 mins by Ellman's method
[10] = biological target: Acetylcholinesterase (Electrophorus electricus) (UniProt O42275); test: Mixed-type inhibition of electric eel AChE at 4 to 20 uM using acetylthiocholine iodide as substrate preincubated for 15 mins followed by substrate addition measured for 30 mins by Lineweaver-Burk plot method
[11] = biological target: Acetylcholinesterase (Electrophorus electricus) (UniProt O42275); test: Mixed-type inhibition of electric eel AChE at 4 to 16 uM using acetylthiocholine iodide as substrate preincubated for 15 mins followed by substrate addition measured for 30 mins by Lineweaver-Burk plot method
[12] = biological target: Acetylcholinesterase (Electrophorus electricus) (UniProt O42275); test: Mixed-type inhibition of electric eel AChE at 2 to 10 uM using acetylthiocholine iodide as substrate preincubated for 15 mins followed by substrate addition measured for 30 mins by Lineweaver-Burk plot method

Row | SMILES | Ratio IC50 [2] | IC50 [3] [µM] | IC50 [5] [µM] | also measured
1 | C=C1C2(CC[C@H]3[C@@H]4CC(=O)[C@H]5C[C@@H](O)CC[C@]5(C)[C@H]4C[C@@]13O)O[C@@H]1C[C@H](C)CN[C@H]1[C@H]2C (stereo partly drawn) | 126 | 7.6 | 958 | inhibition [1]: Active; inhibition [4]: Active
2 | C[C@H]1CC[C@H]2[C@H](C)[C@@H]3CC[C@@H]4[C@@H](C[C@H]5[C@H]4CC(=O)[C@H]4C[C@@H](O[C@@H]6O[C@H](CO)[C@@H](O[C@@H]7O[C@H](CO)[C@@H](O)[C@H](O)[C@H]7O)[C@H](O)[C@H]6O)CC[C@@]45C)[C@@H]3CN2C1 | 0.58 | 9.88 | 5.71 | inhibition [6]: Active; inhibition [7]: Active
3 | C[C@H]1CC[C@@H]2N(C1)C[C@H]1[C@@H]3C[C@H]4[C@@H](CC(=O)[C@H]5C[C@@H](O[C@@H]6O[C@H](CO)[C@@H](O)[C@H](O)[C@H]6O)CC[C@@]54C)[C@@H]3CC[C@H]1[C@]2(C)O | – | > 100 | > 100 | –
4 | C[C@H]1CC[C@H]2[C@H](C)[C@@H]3CC[C@@H]4[C@@H](C[C@H]5[C@H]4CC(=O)[C@H]4C[C@@H](O[C@@H]6O[C@H](CO)[C@@H](O)[C@H](O)[C@H]6O)CC[C@@]45C)[C@@H]3CN2C1 | 0.59 | 11.5 | 6.8 | inhibition [8]: Active; inhibition [6]: Active
5 | C[C@H]1CC[C@H]2[C@H](C)[C@@H]3CC[C@@H]4[C@@H](C[C@H]5[C@H]4CC(=O)[C@H]4C[C@@H](O)CC[C@@]45C)[C@@H]3CN2C1 | 0.36 | 8.37 | 3.05 | inhibition [9]: Active; inhibition [10]: Active
6 | C[C@H]1CC[C@@H]2N(C1)C[C@H]1[C@@H]3C[C@H]4[C@@H](CC(=O)[C@H]5C[C@@H](O)CC[C@@]54C)[C@@H]3CC[C@H]1[C@]2(C)O [IMPERIALINE] | – | > 100 | > 100 | –
7 | C[C@H]1CC[C@@H]2[C@@H](C)[C@@H]3CC[C@@H]4[C@@H](C[C@H]5[C@H]4C[C@H](O)[C@H]4C[C@@H](O[C@@H]6O[C@H](CO)[C@@H](O)[C@H](O)[C@H]6O)CC[C@@]45C)[C@@H]3CN2C1 | 0.26 | 51.5 | 13.5 | –
8 | CC1=C2C[C@H]3[C@@H](CC(=O)[C@H]4C[C@@H](O)CC[C@@]43C)[C@@H]2CCC12O[C@@H]1C[C@H](C)CN[C@H]1[C@H]2C (stereo partly drawn) | 1.63 | 94 | 153 | –
9 | C[C@H]1CC[C@H]2[C@H](C)[C@H]3CC[C@@H]4[C@@H](C[C@H]5[C@H]4C[C@@H](O)[C@H]4C[C@@H](O)CC[C@@]45C)[C@@H]3CN2C1 | 0.41 | 45.8 | 18.6 | –
10 | C[C@H]1CC[C@@H]2[C@@H](C)[C@@H]3CC[C@@H]4[C@@H](C[C@H]5[C@H]4C[C@@H](O)[C@H]4C[C@@H](O[C@@H]6O[C@H](CO)[C@@H](O)[C@H](O)[C@H]6O)CC[C@@]45C)[C@@H]3CN2C1 | 0.36 | 10.8 | 3.89 | inhibition [6]: Active; inhibition [7]: Active
11 | C[C@H]1CC[C@@H]2[C@@H](C)[C@@H]3CC[C@@H]4[C@@H](C[C@H]5[C@H]4C[C@H](O)[C@H]4C[C@@H](O)CC[C@@]45C)[C@@H]3CN2C1 | 0.36 | 7.19 | 2.58 | inhibition [1]: Active; inhibition [11]: Active
12 | C[C@H]1CC[C@@H]2[C@@H](C)[C@@H]3CC[C@@H]4[C@@H](C[C@H]5[C@H]4C[C@@H](O)[C@H]4C[C@@H](O)CC[C@@]45C)[C@@H]3CN2C1 | 0.36 | 5.85 | 2.08 | inhibition [12]: Active; inhibition [1]: Active
